Test results published in ChEMBL document CHEMBL6103576, “Design, synthesis, and antiviral activity of fragmented-lapatinib aminoquinazoline analogs towards SARS-CoV-2 inhibition” (Eur J Med Chem, 2025).

Tests used:
[1] = molecular target: Replicase polyprotein 1ab (Severe acute respiratory syndrome coronavirus 2) (UniProt P0DTD1); assay: Inhibition of SARS-CoV-2 MPro using E(EDAS)TSAVLQSGFRK(DABCYL) as substrate at 100 uM by fluorescence based analysis relative to control
SARS-CoV-2 [2] = assay: Antiviral activity against SARS-CoV-2 infected in Vero E6 cells assessed as inhibition of viral replication at 10 uM measured for 72 hrs relative to control; format: functional; conditions: Severe acute respiratory syndrome coronavirus 2, Vero C1008
[3] = Cytotoxicity against African green monkey Vero E6 cells assessed as cell viability at 50 uM incubated for 48 hrs by CellTiter96 assay relative to control; format: toxicity, cell-based, Vero C1008; conditions: chlorocebus sabaeus, read-out: Activity
SARS-CoV-2 [4] = assay: Antiviral activity against SARS-CoV-2 infected in Vero E6 cells assessed as inhibition of viral replication at 50 uM measured for 72 hrs relative to control; format: functional; conditions: Severe acute respiratory syndrome coronavirus 2, Vero C1008
Vero C1008 = assay: Cytotoxicity against African green monkey Vero E6 cells assessed as cell viability at 10 uM incubated for 48 hrs by CellTiter96 assay; format: toxicity, cell-based; conditions: chlorocebus sabaeus, vero c1008, 48 h
[5] = molecular target: Replicase polyprotein 1ab (Severe acute respiratory syndrome coronavirus 2, UniProt P0DTD1); assay: Inhibition of SARS-CoV-2 MPro using E(EDAS)TSAVLQSGFRK(DABCYL) as substrate by fluorescence based analysis
[6] = Cytotoxicity against African green monkey Vero E6 cells assessed as cell viability incubated for 48 hrs by CellTiter96 assay; format: toxicity, cell-based, Vero C1008; conditions: chlorocebus sabaeus
SARS-CoV-2 [7] = assay: Antiviral activity against SARS-CoV-2 infected in Vero E6 cells assessed as inhibition of viral replication measured for 72 hrs; format: functional, organism-based; conditions: Severe acute respiratory syndrome coronavirus 2, Vero C1008, 72 h

SMILES | inhibition [1] | inhibition at 10 µM (SARS-CoV-2 [2]) | viability at 48 h, 50 µM [3] | inhibition at 50 µM (SARS-CoV-2 [4]) | Activity (Vero C1008) | IC50 [5] | CC50 at 48 h [6] | EC50 (SARS-CoV-2 [7])
CS(=O)(=O)CCNCc1ccc(-c2ccc3ncnc(Nc4ccc(OCc5cccc(F)c5)c(Cl)c4)c3c2)o1 [LAPATINIB] | 97.1% | 58.8% | 71.1% | 92.7% | – | – | – | –
CCC(CC)COC(=O)[C@H](C)N[P@](=O)(OC[C@H]1OC(C#N)(c2ccc3c(N)ncnn23)[C@H](O)[C@@H]1O)Oc1ccccc1 (some centres undefined) | – | 99.9% | – | – | Non-toxic | – | – | –
O=C(Nc1ccccc1Cl)c1cccc(COc2ccc(Nc3ncnc4ccccc34)cc2Cl)c1 | 53% | – | 38% | 95.9% | – | – | – | –
O=C(Nc1cccc(I)c1)c1ccc(COc2ccc(Nc3ncnc4ccccc34)cc2Cl)cc1 | 87.7% | – | 0% | 94.5% | – | 9.12 µM | – | –
O=C(Nc1cccc(C(F)(F)F)c1)c1cccc(COc2ccc(Nc3ncnc4ccccc34)cc2Cl)c1 | – | – | 26.6% | 99% | – | – | – | –
O=C(Nc1ccccc1)c1ccc(COc2ccc(Nc3ncnc4ccccc34)cc2Cl)cc1 | 66.3% | – | 8.05% | 0% | – | – | – | –
O=C(Nc1ccccc1)c1cccc(COc2ccc(Nc3ncnc4ccccc34)cc2Cl)c1 | 98% | – | 1% | 68.4% | – | 3.75 µM | – | –
COc1cccc(NC(=O)c2cccc(COc3ccc(Nc4ncnc5ccccc45)cc3Cl)c2)c1 | – | – | 8.66% | 92.7% | – | – | – | –
Clc1cc(Nc2ncnc3ccccc23)ccc1OCc1cccc(Br)c1 | 82% | – | 28.1% | 68.4% | – | 4.38 µM | – | –
O=C(Nc1cccc(I)c1)c1cccc(COc2ccc(Nc3ncnc4ccccc34)cc2Cl)c1 | 55.7% | – | 21% | 99% | – | – | – | –
Fc1cccc(COc2ccc(Nc3ncnc4ccccc34)cc2Cl)c1 | 82.6% | – | 44.8% | 43.7% | – | 3.18 µM | – | –
O=C(Nc1ccccc1Cl)c1ccc(COc2ccc(Nc3ncnc4ccccc34)cc2Cl)cc1 | 30.8% | – | 3.64% | 57.7% | – | – | – | –
O=C(Nc1ccccc1F)c1cccc(COc2ccc(Nc3ncnc4ccccc34)cc2Cl)c1 | 68.6% | 82.2% | 13.6% | 96.9% | – | – | > 100 µM | 1.1 µM
O=C(Nc1ccc(Cl)cc1)c1cccc(COc2ccc(Nc3ncnc4ccccc34)cc2Cl)c1 | 69.5% | – | 9.39% | 24.9% | – | – | – | –
O=C(Nc1cccc(C(F)(F)F)c1)c1ccc(COc2ccc(Nc3ncnc4ccccc34)cc2Cl)cc1 | 55.7% | – | 17.3% | 90% | – | – | – | –
O=C(Nc1ccccc1F)c1ccc(COc2ccc(Nc3ncnc4ccccc34)cc2Cl)cc1 | 66.4% | – | 0% | 86.7% | – | – | – | –
COc1cccc(NC(=O)c2ccc(COc3ccc(Nc4ncnc5ccccc45)cc3Cl)cc2)c1 | 49.3% | – | 22.6% | 82.2% | – | – | – | –
Clc1cc(Nc2ncnc3ccccc23)ccc1OCc1ccccc1 | 74.6% | – | 49.3% | 25.1% | – | 3.97 µM | – | –
O=C(Nc1ccc(Cl)cc1)c1ccc(COc2ccc(Nc3ncnc4ccccc34)cc2Cl)cc1 | 73.2% | – | 0% | 82.2% | – | 4.83 µM | – | –
